Laboratory results: patent EP3898610B1, “NOVEL AZA-HEXAPHENE ANTIBIOTIC COMPOUNDS” (Fondazione Istituto Insubrico di Ricerca per la Vita, priority 2018, dated 2020)
Converted amounts (≈) assume the structure as drawn.

How the values were obtained:
Assay type in all cases: cell-based
L44 S. pneumoniae = assay: MIC, broth microdilution (CLSI); details: Streptococcus pneumoniae
Experimental: (§1) Antibacterial activity. […] Each bacterial strain was inoculated with 2-5×10^5 CFU/ml, Candida albicans with 10^4 CFU/ml. Cultures were incubated at 35°C in air. After 18-24 hours visual readings were performed and MICs (Minimal Inhibitory Concentrations) determined. The effect of 30% bovine serum was determined under the same experimental conditions. The strains used were clinical isolates or strains from American Type Culture Collection (ATCC).

[1] = system: VA80201 S. aureus CA-MRSA; assay: MIC, broth microdilution (CLSI); details: Staphylococcus aureus, MRSA
Experimental: as §1

L560 E. faecalis VanA = assay: MIC, broth microdilution (CLSI); details: Enterococcus faecalis
Experimental: as §1

L49 S. pyogenes C203 = assay: MIC, broth microdilution (CLSI); details: Streptococcus pyogenes
Experimental: as §1

L1400 S. aureus HA-MRSA = assay: MIC, broth microdilution (CLSI); details: Staphylococcus aureus, MRSA
Experimental: as §1

[2] = system: L1729 S. haemolyticus MDR; assay: MIC, broth microdilution (CLSI); details: Staphylococcus haemolyticus
Experimental: as §1

L1730 S. haemolyticus = assay: MIC, broth microdilution (CLSI); details: L1730 S. haemolyticus, cation-adjusted Mueller Hinton Broth, 35°C, 18-24 hours
Experimental: as §1

L3294 M. catarrhalis = assay: MIC, broth microdilution (CLSI); details: Moraxella catarrhalis
Experimental: as §1

[3] = system: VA8101 S. agalactiae (Group B); assay: MIC, broth microdilution (CLSI); details: Streptococcus agalactiae
Experimental: as §1

L1577 S. epidermidis = assay: MIC, broth microdilution (CLSI); details: Staphylococcus epidermidis
Experimental: as §1

L100 S. aureus ATCC6538P = assay: MIC, broth microdilution (CLSI); details: Staphylococcus aureus, ATCC6538P
Experimental: as §1

L559 E. faecalis = assay: MIC, broth microdilution (CLSI); details: Enterococcus faecalis
Experimental: as §1

[4] = system: L4061 S. aureus MRSA - GISA; assay: MIC, broth microdilution (CLSI); details: Staphylococcus aureus, MRSA
Experimental: as §1

L47 E. coli = assay: MIC, broth microdilution (CLSI); details: Escherichia coli
Experimental: as §1

L819 S. aureus Smith = assay: MIC, broth microdilution (CLSI); details: Staphylococcus aureus
Experimental: as §1

L569 E. faecium VanA = assay: MIC, broth microdilution (CLSI)
Experimental: as §1

L568 E. faecium = assay: MIC, broth microdilution (CLSI); details: Enterococcus faecium
Experimental: as §1

[5] = system: L4187 E. faecium VanA - Lnz R - Cpx R; assay: microbe, parasite or virus in culture; details: Enterococcus faecium
Experimental: as §1

L145 C. albicans = assay: MIC, broth microdilution (CLSI); details: Candida albicans
Experimental: Antibacterial activity. The antimicrobial activity of the antibiotic 103/33-F710 was determined by the broth microdilution method according to the procedures published by the Clinical and Laboratory Standards Institute (CLSI), formerly the National Committee for Clinical Laboratory Standards (NCCLS) (document M07-A9). Microorganisms were grown in either cation-adjusted Mueller Hinton Broth (Staphylococci, Enterococci, Moraxella catarrhalis, Escherichia coli), Todd Hewitt medium (Streptococci) or RPMI 1640 medium for Candida albicans on 96-well microtiter plates. Each bacterial strain was inoculated with 2-5×10^5 CFU/ml, Candida albicans with 10^4 CFU/ml. Cultures were incubated at 35°C in air. After 18-24 hours visual readings were performed and MICs (Minimal Inhibitory Concentrations) determined. The effect of 30% bovine serum was determined under the same experimental conditions. The strains used were clinical isolates or strains from American Type Culture Collection (ATCC). The antibiotic 103/33-F710 was dissolved in DMSO to obtain a 1000 µg/ml stock solution, and subsequently diluted in water to obtain working solution. Table 5: Antimicrobial activity reported as MIC (µg/ml) of ID103/33-F710
Antibacterial activity. The antimicrobial activity of the antibiotic 103/33-F696 was determined by the broth microdilution method according to the procedures disclosed in Example 7. Table 6: Antimicrobial activity reported as MIC (µg/ml) of compound 2 (103/33-F696)
Antibacterial activity. The antimicrobial activity of the antibiotic 103/33-F712 was determined by the broth microdilution method according to the procedures disclosed in Example 7. Table 7: Antimicrobial activity reported as MIC (µg/ml) of ID103/33-F712

## CN[C@H](CC(C)C)C(=O)N[C@H]1C(=O)N[C@@H](CC(N)=O)C(=O)N[C@H]2C(=O)N[C@H]3C(=O)N[C@H](C(=O)N[C@H](C(=O)O)c4cc(O)cc(O)c4-c4cc3ccc4O)[C@H](O)c3ccc(c(Cl)c3)Oc3cc2cc(c3O[C@@H]2O[C@H](CO)[C@@H](O)[C@H](O)[C@H]2O[C@H]2C[C@](C)(N)[C@H](O)[C@H](C)O2)Oc2ccc(cc2Cl)[C@H]1O [Vancomycin, reference compound]
L44 S. pneumoniae
  MIC: 0.5 µg/mL (≈ 0.345 µM)
[1]
  MIC: 1 µg/mL (≈ 0.69 µM)
L560 E. faecalis VanA
  MIC: > 128 µg/mL
L49 S. pyogenes C203
  MIC: 0.5 µg/mL (≈ 0.345 µM)
L1400 S. aureus HA-MRSA
  MIC: 1 µg/mL (≈ 0.69 µM)
[2]
  MIC: 2 µg/mL (≈ 1.38 µM)
L1730 S. haemolyticus
  MIC: 0.5 µg/mL (≈ 0.345 µM)
L1730 S. haemolyticus; Staphylococcus haemolyticus
  MIC: 1 µg/mL (≈ 0.69 µM)
L3294 M. catarrhalis
  MIC: 16 µg/mL (≈ 11 µM)
[3]
  MIC: 0.5 µg/mL (≈ 0.345 µM)
L1577 S. epidermidis
  MIC: 1 µg/mL (≈ 0.69 µM)
L100 S. aureus ATCC6538P
  MIC: 1 µg/mL (≈ 0.69 µM)
L559 E. faecalis
  MIC: 0.5 µg/mL (≈ 0.345 µM)
[4]
  MIC: 4 µg/mL (≈ 2.76 µM)
L47 E. coli
  MIC: > 128 µg/mL
L819 S. aureus Smith
  MIC: 1 µg/mL (≈ 0.69 µM)
L569 E. faecium VanA; Enterococcus faecium
  MIC: > 128 µg/mL
L569 E. faecium VanA; L569 E. faecium VanA 30 % SB (30% bovine serum)
  MIC: > 128 µg/mL
L568 E. faecium
  MIC: 2 µg/mL (≈ 1.38 µM)
[5]
  MIC: > 128 µg/mL

## C[C@@H]1[C@H](O)[C@@H](C)/C=C/C=C/C=C/C=C/C=C/C=C/C=C/[C@H](O[C@@H]2O[C@H](C)[C@@H](O)[C@H](N)[C@@H]2O)C[C@@H]2O[C@](O)(C[C@@H](O)C[C@@H](O)[C@H](O)CC[C@@H](O)C[C@@H](O)CC(=O)O[C@H]1C)C[C@H](O)[C@H]2C(=O)O [amphotericin B, reference compound]
L145 C. albicans
  MIC: 0.5 µg/mL (≈ 0.541 µM)
